# Values of other authors as cited in patent publication EP4108230A1, “NEW DRY POWDER COMPOSITION OF TIOTROPIUM FOR INHALATION” (Laboratoires SMB, priority 2021, dated 2022).
compound,measurement,setting,value
"C[N+]1(C)[C@@H]2C[C@@H](OC(=O)C(O)(c3cccs3)c3cccs3)C[C@H]1[C@@H]1O[C@@H]12 [Tiotropium bromide, (1α, 2β, 4 β, 5α, 7β)-7-[(Hydroxydi-2-thienylacetyl)oxy]-9,9-dimethyl-3-oxa-9-azoniatricyclo[3.3.1.02,4] nonane bromide monohydrate]",solubility in methanol,methanol,soluble
same,solubility in water,water,sparingly soluble
